Values after ≈ are worked out from the molar mass of the structure shown.
Experiments:
Type in all cases: functional
[1] = system: Aspergillus niger; assay: Antifungal activity against Aspergillus niger MTCC 282 after 48 hr; details: MTCC 282, 48 h
[2] = system: Shigella flexneri; assay: Antibacterial activity against Shigella flexneri after 24 hr by agar disk diffusion test; further: test concentration or dose not given here
[3] = system: Klebsiella pneumoniae; assay: Antibacterial activity against Klebsiella pneumoniae MTCC 109 after 24 hr by agar disk diffusion test
[4] = system: Staphylococcus aureus; assay: Antibacterial activity against Staphylococcus aureus MTCC 96 after 24 hr by agar disk diffusion test
[5] = system: Shigella flexneri; assay: Antibacterial activity against Shigella flexneri after 24 hr
[6] = system: Staphylococcus aureus; assay: Antibacterial activity against Staphylococcus aureus MTCC 96 after 24 hr; details: MTCC 96, 24 h
[7] = system: Proteus vulgaris; assay: Antibacterial activity against Proteus vulgaris MTCC 1771 after 24 hr; details: MTCC 1771, 24 h
[8] = system: Proteus vulgaris; assay: Antibacterial activity against Proteus vulgaris MTCC 1771 after 24 hr by agar disk diffusion test; further: test concentration or dose not given here
[9] = system: Bacillus cereus; assay: Antibacterial activity against Bacillus cereus MTCC 619 after 24 hr; details: MTCC 619, 24 h
[10] = system: Aspergillus niger; assay: Antifungal activity against Aspergillus niger MTCC 282 after 24 hr by agar disk diffusion test; further: test concentration or dose not given here
[11] = system: Escherichia coli; assay: Antibacterial activity against Escherichia coli MTCC 739 after 24 hr; details: MTCC 739, 24 h
[12] = system: Pseudomonas aeruginosa; assay: Antibacterial activity against Pseudomonas aeruginosa MTCC 741
[13] = system: Klebsiella pneumoniae; assay: Antibacterial activity against Klebsiella pneumoniae MTCC 109 after 24 hr; details: MTCC 109, 24 h
[14] = system: Salmonella typhi; assay: Antibacterial activity against Salmonella enterica subsp. enterica serovar Typhi MTCC 733 after 24 hr; details: MTCC 733, 24 h
[15] = system: Pseudomonas aeruginosa; assay: Antibacterial activity against Pseudomonas aeruginosa MTCC 741 after 24 hr by agar disk diffusion test
[16] = system: Candida albicans; assay: Antifungal activity against Candida albicans MTCC 183 after 48 hr; details: MTCC 183, 48 h
[17] = system: Bacillus cereus; assay: Antibacterial activity against Bacillus cereus MTCC 619 after 24 hr by agar disk diffusion test; further: test concentration or dose not given here
[18] = system: Escherichia coli; assay: Antibacterial activity against Escherichia coli MTCC 739 after 24 hr by agar disk diffusion test
[19] = system: Candida albicans; assay: Antifungal activity against Candida albicans MTCC 183 after 24 hr by agar disk diffusion test; further: test concentration or dose not given here
[20] = system: Salmonella typhi; assay: Antibacterial activity against Salmonella enterica subsp. enterica serovar Typhi MTCC 733 after 24 hr by agar disk diffusion test

Row | Compound | MIC [1] | inhibition zone (IZ) [2] | inhibition zone (IZ) [3] | inhibition zone (IZ) [4] | MIC [5] | MIC [6] | MIC [7] | inhibition zone (IZ) [8] | MIC [9] | inhibition zone (IZ) [10] | MIC [11] | MIC [12] | MIC [13] | MIC [14] | inhibition zone (IZ) [15] | MIC [16] | inhibition zone (IZ) [17] | inhibition zone (IZ) [18] | inhibition zone (IZ) [19] | inhibition zone (IZ) [20]
1 | O=c1oc2ccccc2cc1-c1nnc(Sc2nc(Oc3cccc4cccnc34)nc(N3CCN(Cc4ccccc4)CC3)n2)o1 | 100 µg/mL (≈ 156 µM) | 13 mm | <10 mm | 13 mm | 100 µg/mL (≈ 156 µM) | 100 µg/mL (≈ 156 µM) | 100 µg/mL (≈ 156 µM) | <10 mm | 100 µg/mL (≈ 156 µM) | <10 mm | 100 µg/mL (≈ 156 µM) | 100 µg/mL (≈ 156 µM) | 100 µg/mL (≈ 156 µM) | 100 µg/mL (≈ 156 µM) | 19 mm | 100 µg/mL (≈ 156 µM) | 17 mm | 16 mm | <10 mm | <10 mm
2 | O=c1oc2ccccc2cc1-c1nnc(Sc2nc(Oc3cccc4cccnc34)nc(N3CCN(C(c4ccccc4)c4ccc(Cl)cc4)CC3)n2)o1 (stereo not given) | 50 µg/mL (≈ 66.4 µM) | 16 mm | 19 mm | 20 mm | 100 µg/mL (≈ 133 µM) | 50 µg/mL (≈ 66.4 µM) | 100 µg/mL (≈ 133 µM) | 20 mm | 50 µg/mL (≈ 66.4 µM) | 22 mm | 25 µg/mL (≈ 33.2 µM) | 100 µg/mL (≈ 133 µM) | 100 µg/mL (≈ 133 µM) | 100 µg/mL (≈ 133 µM) | 16 mm | 50 µg/mL (≈ 66.4 µM) | 21 mm | 25 mm | 22 mm | 19 mm
3 | CN1CCN(c2nc(Oc3cccc4cccnc34)nc(Sc3nnc(-c4cc5ccccc5oc4=O)o3)n2)CC1 | 100 µg/mL (≈ 176 µM) | 18 mm | 12 mm | 13 mm | 100 µg/mL (≈ 176 µM) | 100 µg/mL (≈ 176 µM) | 100 µg/mL (≈ 176 µM) | 11 mm | 100 µg/mL (≈ 176 µM) | <10 mm | 100 µg/mL (≈ 176 µM) | 100 µg/mL (≈ 176 µM) | 100 µg/mL (≈ 176 µM) | 100 µg/mL (≈ 176 µM) | 19 mm | 100 µg/mL (≈ 176 µM) | <10 mm | 12 mm | 11 mm | 16 mm
4 | O=c1oc2ccccc2cc1-c1nnc(Sc2nc(Oc3cccc4cccnc34)nc(N3CCN(c4cccc(Cl)c4)CC3)n2)o1 | 100 µg/mL (≈ 151 µM) | 19 mm | 15 mm | 17 mm | 100 µg/mL (≈ 151 µM) | 100 µg/mL (≈ 151 µM) | 100 µg/mL (≈ 151 µM) | 19 mm | 100 µg/mL (≈ 151 µM) | 20 mm | 25 µg/mL (≈ 37.7 µM) | 100 µg/mL (≈ 151 µM) | 100 µg/mL (≈ 151 µM) | 100 µg/mL (≈ 151 µM) | 14 mm | 50 µg/mL (≈ 75.4 µM) | 17 mm | 25 mm | 20 mm | 17 mm
5 | O=c1oc2ccccc2cc1-c1nnc(Sc2nc(Oc3cccc4cccnc34)nc(N3CCN(C(c4ccccc4)c4ccccc4)CC3)n2)o1 | 100 µg/mL (≈ 139 µM) | 14 mm | 14 mm | 18 mm | 100 µg/mL (≈ 139 µM) | 100 µg/mL (≈ 139 µM) | 100 µg/mL (≈ 139 µM) | <10 mm | 100 µg/mL (≈ 139 µM) | 11 mm | 100 µg/mL (≈ 139 µM) | 100 µg/mL (≈ 139 µM) | 100 µg/mL (≈ 139 µM) | 100 µg/mL (≈ 139 µM) | <10 mm | 100 µg/mL (≈ 139 µM) | 14 mm | 13 mm | <10 mm | 12 mm
6 | O=c1oc2ccccc2cc1-c1nnc(Sc2nc(Oc3cccc4cccnc34)nc(N3CCC(Cc4ccccc4)CC3)n2)o1 | 100 µg/mL (≈ 156 µM) | 11 mm | <10 mm | 16 mm | 100 µg/mL (≈ 156 µM) | 100 µg/mL (≈ 156 µM) | 100 µg/mL (≈ 156 µM) | <10 mm | 100 µg/mL (≈ 156 µM) | <10 mm | 100 µg/mL (≈ 156 µM) | 100 µg/mL (≈ 156 µM) | 100 µg/mL (≈ 156 µM) | 100 µg/mL (≈ 156 µM) | <10 mm | 100 µg/mL (≈ 156 µM) | 13 mm | 12 mm | 13 mm | 14 mm
7 | O=c1oc2ccccc2cc1-c1nnc(Sc2nc(Oc3cccc4cccnc34)nc(N3CCN(c4cccc(Cl)c4Cl)CC3)n2)o1 | 25 µg/mL (≈ 35.8 µM) | 21 mm | 21 mm | 21 mm | 100 µg/mL (≈ 143 µM) | 50 µg/mL (≈ 71.7 µM) | 100 µg/mL (≈ 143 µM) | 17 mm | 25 µg/mL (≈ 35.8 µM) | 23 mm | 25 µg/mL (≈ 35.8 µM) | 50 µg/mL (≈ 71.7 µM) | 25 µg/mL (≈ 35.8 µM) | 100 µg/mL (≈ 143 µM) | 20 mm | 50 µg/mL (≈ 71.7 µM) | 22 mm | 24 mm | 21 mm | 19 mm
8 | COc1ccc(N2CCN(c3nc(Oc4cccc5cccnc45)nc(Sc4nnc(-c5cc6ccccc6oc5=O)o4)n3)CC2)cc1 | 25 µg/mL (≈ 38 µM) | 22 mm | 19 mm | 22 mm | 50 µg/mL (≈ 75.9 µM) | 25 µg/mL (≈ 38 µM) | 100 µg/mL (≈ 152 µM) | 18 mm | 12.5 µg/mL (≈ 19 µM) | 24 mm | 100 µg/mL (≈ 152 µM) | 12.5 µg/mL (≈ 19 µM) | 100 µg/mL (≈ 152 µM) | 12.5 µg/mL (≈ 19 µM) | 23 mm | 50 µg/mL (≈ 75.9 µM) | 23 mm | 17 mm | 22 mm | 24 mm
9 | CC(C)N1CCN(c2nc(Oc3cccc4cccnc34)nc(Sc3nnc(-c4cc5ccccc5oc4=O)o3)n2)CC1 | 100 µg/mL (≈ 168 µM) | 24 mm | 14 mm | 19 mm | 25 µg/mL (≈ 42 µM) | 100 µg/mL (≈ 168 µM) | 100 µg/mL (≈ 168 µM) | 15 mm | 100 µg/mL (≈ 168 µM) | 12 mm | 100 µg/mL (≈ 168 µM) | 25 µg/mL (≈ 42 µM) | 100 µg/mL (≈ 168 µM) | 50 µg/mL (≈ 84.1 µM) | 21 mm | 100 µg/mL (≈ 168 µM) | 16 mm | 16 mm | 11 mm | 20 mm
10 | CC1CC(C)CN(c2nc(Oc3cccc4cccnc34)nc(Sc3nnc(-c4cc5ccccc5oc4=O)o3)n2)C1 (stereo not given) | 25 µg/mL (≈ 43.1 µM) | 24 mm | 16 mm | 22 mm | 25 µg/mL (≈ 43.1 µM) | 25 µg/mL (≈ 43.1 µM) | 100 µg/mL (≈ 173 µM) | 19 mm | 50 µg/mL (≈ 86.3 µM) | 23 mm | 50 µg/mL (≈ 86.3 µM) | 12.5 µg/mL (≈ 21.6 µM) | 100 µg/mL (≈ 173 µM) | 12.5 µg/mL (≈ 21.6 µM) | 22 mm | 100 µg/mL (≈ 173 µM) | 21 mm | 20 mm | 16 mm | 23 mm
11 | O=c1oc2ccccc2cc1-c1nnc(Sc2nc(Oc3cccc4cccnc34)nc(N3CCN(c4ccccn4)CC3)n2)o1 | 100 µg/mL (≈ 159 µM) | 22 mm | 22 mm | 21 mm | 50 µg/mL (≈ 79.4 µM) | 50 µg/mL (≈ 79.4 µM) | 100 µg/mL (≈ 159 µM) | 14 mm | 50 µg/mL (≈ 79.4 µM) | 14 mm | 100 µg/mL (≈ 159 µM) | 100 µg/mL (≈ 159 µM) | 25 µg/mL (≈ 39.7 µM) | 100 µg/mL (≈ 159 µM) | 18 mm | 100 µg/mL (≈ 159 µM) | 21 mm | 15 mm | 17 mm | 14 mm
12 | CCN1CCN(c2nc(Oc3cccc4cccnc34)nc(Sc3nnc(-c4cc5ccccc5oc4=O)o3)n2)CC1 | 100 µg/mL (≈ 172 µM) | 20 mm | 14 mm | 15 mm | 100 µg/mL (≈ 172 µM) | 100 µg/mL (≈ 172 µM) | 100 µg/mL (≈ 172 µM) | 12 mm | 100 µg/mL (≈ 172 µM) | <10 mm | 100 µg/mL (≈ 172 µM) | 100 µg/mL (≈ 172 µM) | 100 µg/mL (≈ 172 µM) | 100 µg/mL (≈ 172 µM) | 18 mm | 100 µg/mL (≈ 172 µM) | 13 mm | 16 mm | 13 mm | 16 mm

Source: ChEMBL document CHEMBL3045723, “Synthesis of novel 3-(5-sulfanyl-1,3,4-oxadiazol-2-yl)-2H-chromen-2-one condensed s-triazinyl piperazines and piperidines as antimicrobial agents” (2012)
